For 4 molecules, IC50 results are on record in ChEMBL document CHEMBL1221378, “Synthesis of cholestane glycosides bearing OSW-1 disaccharide or its 1-->4-linked analogue and their antitumor activities” (Bioorg Med Chem Lett, 2010).

As usually defined, the IC50 is the midpoint of a concentration-inhibition curve.

What all share (assay type): functional, cell-based
One test has as its system HCT-8. Put plainly: Cytotoxicity against human HCT8 cells after 72 hrs by MTT assay. To be noted: HCT-8, 72 h. For orientation: Formazan colour is commonly taken as a measure of viable cells.
In the next test the test system is Bel-7402. Nature of the test: Cytotoxicity against human Bel7402 cells after 72 hrs by MTT assay. To be noted: Bel-7402, 72 h.
Another test relates to BGC-823. Put plainly: Cytotoxicity against human BGC823 cells after 72 hrs by MTT assay. To be noted: BGC-823, 72 h.
The next test relates to A2780. Nature of the test: Cytotoxicity against human A2780 cells after 72 hrs by MTT assay. Particulars: A2780, 72 h.
Another test has as its system A549. Nature of the test: Cytotoxicity against human A549 cells after 72 hrs by MTT assay. Particulars: A549, 72 h.

With `CC(=O)O[C@H]1C(=O)[C@@]2(C)[C@H]([C@H](OC(=O)c3ccccc3)[C@]3(O)C[C@H](OC(=O)[C@H](O)[C@@H](NC(=O)c4ccccc4)c4ccccc4)C(C)=C1C3(C)C)[C@]1(OC(C)=O)CO[C@@H]1C[C@@H]2O` [PACLITAXEL], the IC50 in the test with HCT-8 was 51 nM; in the test with Bel-7402, 60 nM; in the test with BGC-823, under 1 nM; in the test on A2780 it was under 1 nM; in the test on A549, 16 nM.
`COc1ccc(C(=O)O[C@H]2[C@H](O[C@@H]3CO[C@@H](O[C@H]4C[C@H]5[C@@H]6CC=C7C[C@@H](O)CC[C@]7(C)[C@H]6CC[C@]5(C)[C@H]4[C@H](C)C(=O)CC[C@@H](C)CO)[C@H](OC(C)=O)[C@H]3O)OC[C@@H](O)[C@@H]2O)cc1`: the IC50 in the test with HCT-8, in the test with Bel-7402, in the test with BGC-823, in the test with A2780 and in the test with A549 was over 10000 nM throughout.
As for `COc1ccc(C(=O)O[C@H]2[C@H](O[C@@H]3CO[C@@H](O[C@@H](CC[C@@H](C)CO)[C@@H](C)[C@H]4[C@@H](O[C@@H]5OC[C@@H](O[C@@H]6OC[C@@H](O)[C@H](O)[C@H]6OC(=O)c6ccc(OC)cc6)[C@H](O)[C@H]5OC(C)=O)C[C@H]5[C@@H]6CC=C7C[C@@H](O)CC[C@]7(C)[C@H]6CC[C@]45C)[C@H](OC(C)=O)[C@H]3O)OC[C@@H](O)[C@@H]2O)cc1`, the IC50 with HCT-8, in the test with Bel-7402, in the test with BGC-823, with A2780 and with A549 was over 10000 nM in each case.
On to `COc1ccc(C(=O)O[C@H]2[C@H](O[C@@H]3[C@@H](OC(C)=O)[C@H](O[C@H]4C[C@H]5[C@@H]6CC=C7C[C@@H](O)CC[C@]7(C)[C@H]6CC[C@]5(C)[C@H]4[C@H](C)C(=O)CC[C@@H](C)CO)OC[C@H]3O)OC[C@@H](O)[C@@H]2O)cc1`, for which the IC50 with HCT-8 was determined as 23 nM; with Bel-7402, 39 nM; in the test with BGC-823 it was 13 nM; in the test with A2780, 73 nM; with A549, 46 nM.
